Assay results published in ChEMBL document CHEMBL1140800, “Identification of 2-amino-5-(thioaryl)thiazoles as inhibitors of nerve growth factor receptor TrkA” (Bioorg Med Chem Lett, 2008).
One block for each compound: values may come before it.

What was measured:
[1] = molecular target: High affinity nerve growth factor receptor (Homo sapiens, UniProt P04629); assay: Inhibition of TrkA
[2] = Antiproliferative activity against rat RKE cells expressing CD8-TrkA after 3 days; format: functional, cell-based; details: 72 h
[3] = Antiproliferative activity against TrkA deficient rat RK3E cells after 3 days; format: functional, cell-based; details: 72 h
[4] = test system: SH-SY5Y; assay: Antiproliferative activity against human SH-SY5Y cells after 3 days; format: functional, cell-based; details: 72 h
[5] = molecular target: Cyclin-dependent kinase 2 (Homo sapiens, UniProt P24941); assay: Inhibition of CDK2
[6] = molecular target: Insulin-like growth factor 1 receptor (Homo sapiens, UniProt P08069); assay: Inhibition of IGF1R
Chain of Insulin-like growth factor 1 receptor (P08069 31-736 limits assumed): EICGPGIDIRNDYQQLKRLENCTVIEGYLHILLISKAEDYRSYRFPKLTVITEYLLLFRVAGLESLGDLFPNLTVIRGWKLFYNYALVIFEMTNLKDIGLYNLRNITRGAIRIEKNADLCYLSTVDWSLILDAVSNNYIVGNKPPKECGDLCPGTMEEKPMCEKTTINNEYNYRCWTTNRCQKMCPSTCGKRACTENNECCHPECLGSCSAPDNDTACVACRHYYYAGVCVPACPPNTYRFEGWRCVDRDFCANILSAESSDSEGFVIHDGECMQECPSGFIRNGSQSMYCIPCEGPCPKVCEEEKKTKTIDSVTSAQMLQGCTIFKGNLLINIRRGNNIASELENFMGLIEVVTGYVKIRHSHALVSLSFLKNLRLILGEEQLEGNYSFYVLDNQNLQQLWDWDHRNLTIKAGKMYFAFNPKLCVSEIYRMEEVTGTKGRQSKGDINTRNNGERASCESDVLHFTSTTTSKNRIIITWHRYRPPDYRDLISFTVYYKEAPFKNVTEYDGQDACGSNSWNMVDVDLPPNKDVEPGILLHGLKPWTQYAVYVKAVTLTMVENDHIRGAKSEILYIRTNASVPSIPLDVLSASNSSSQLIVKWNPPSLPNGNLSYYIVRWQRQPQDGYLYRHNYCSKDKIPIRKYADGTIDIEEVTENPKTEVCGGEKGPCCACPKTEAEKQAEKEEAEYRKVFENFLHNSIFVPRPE
Chain of Insulin-like growth factor 1 receptor (P08069 741-1367 limits assumed): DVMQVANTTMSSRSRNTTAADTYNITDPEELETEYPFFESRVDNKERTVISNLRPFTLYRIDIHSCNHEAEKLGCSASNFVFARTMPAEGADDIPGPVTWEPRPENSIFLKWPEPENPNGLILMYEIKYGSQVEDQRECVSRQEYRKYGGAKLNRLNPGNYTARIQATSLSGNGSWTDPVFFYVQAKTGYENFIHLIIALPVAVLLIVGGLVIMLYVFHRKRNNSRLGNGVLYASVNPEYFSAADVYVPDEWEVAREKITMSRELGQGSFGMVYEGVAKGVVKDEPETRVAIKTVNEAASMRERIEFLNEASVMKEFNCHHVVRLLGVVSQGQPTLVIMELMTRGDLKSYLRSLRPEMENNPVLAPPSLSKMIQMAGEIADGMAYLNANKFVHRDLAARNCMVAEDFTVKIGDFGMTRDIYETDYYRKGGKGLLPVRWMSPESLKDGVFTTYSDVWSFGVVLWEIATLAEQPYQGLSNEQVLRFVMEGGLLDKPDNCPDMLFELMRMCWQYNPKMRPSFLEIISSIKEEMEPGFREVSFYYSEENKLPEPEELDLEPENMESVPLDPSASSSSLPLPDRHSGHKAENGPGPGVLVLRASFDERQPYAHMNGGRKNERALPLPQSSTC

[7] = molecular target: Hepatocyte growth factor receptor (Homo sapiens, UniProt P08581); assay: Inhibition of Met
Chain of Hepatocyte growth factor receptor (P08581 whole entry): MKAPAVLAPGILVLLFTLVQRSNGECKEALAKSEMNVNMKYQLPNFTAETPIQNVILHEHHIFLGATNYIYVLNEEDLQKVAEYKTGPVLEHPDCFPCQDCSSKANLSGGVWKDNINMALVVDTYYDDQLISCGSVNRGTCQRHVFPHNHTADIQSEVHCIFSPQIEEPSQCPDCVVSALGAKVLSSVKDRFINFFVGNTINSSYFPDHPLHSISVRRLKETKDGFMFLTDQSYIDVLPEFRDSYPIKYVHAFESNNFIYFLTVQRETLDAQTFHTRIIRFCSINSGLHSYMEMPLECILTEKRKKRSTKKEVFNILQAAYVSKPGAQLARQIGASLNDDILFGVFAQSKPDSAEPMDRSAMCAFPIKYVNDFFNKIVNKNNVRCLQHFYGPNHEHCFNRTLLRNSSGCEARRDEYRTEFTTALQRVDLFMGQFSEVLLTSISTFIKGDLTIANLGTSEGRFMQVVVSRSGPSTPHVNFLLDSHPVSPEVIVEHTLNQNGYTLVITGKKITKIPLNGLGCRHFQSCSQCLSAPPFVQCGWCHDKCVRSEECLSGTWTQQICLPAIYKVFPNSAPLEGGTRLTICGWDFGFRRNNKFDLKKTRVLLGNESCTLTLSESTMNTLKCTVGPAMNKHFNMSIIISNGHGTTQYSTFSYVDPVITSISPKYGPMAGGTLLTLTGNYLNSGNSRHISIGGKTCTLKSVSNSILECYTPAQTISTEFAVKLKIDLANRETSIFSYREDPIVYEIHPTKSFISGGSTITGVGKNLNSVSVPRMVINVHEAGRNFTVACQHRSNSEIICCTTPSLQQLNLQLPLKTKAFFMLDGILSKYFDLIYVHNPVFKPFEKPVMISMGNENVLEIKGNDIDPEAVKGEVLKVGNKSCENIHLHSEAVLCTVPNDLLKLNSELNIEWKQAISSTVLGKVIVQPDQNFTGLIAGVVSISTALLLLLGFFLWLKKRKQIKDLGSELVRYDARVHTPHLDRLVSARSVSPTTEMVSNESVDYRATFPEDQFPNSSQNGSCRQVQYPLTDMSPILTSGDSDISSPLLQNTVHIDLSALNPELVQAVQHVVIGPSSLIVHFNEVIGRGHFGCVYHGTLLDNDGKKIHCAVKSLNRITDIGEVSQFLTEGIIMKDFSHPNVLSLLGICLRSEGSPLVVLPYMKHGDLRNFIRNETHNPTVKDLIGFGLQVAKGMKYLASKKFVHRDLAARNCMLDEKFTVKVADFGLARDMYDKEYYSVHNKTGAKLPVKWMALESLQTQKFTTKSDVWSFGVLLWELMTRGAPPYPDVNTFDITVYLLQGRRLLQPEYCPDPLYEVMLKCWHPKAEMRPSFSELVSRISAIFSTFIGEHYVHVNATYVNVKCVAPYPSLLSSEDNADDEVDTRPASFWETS

[8] = Inhibition of VEGFR
[9] = Inhibition of VEGFR at 2 uM

Chain of High affinity nerve growth factor receptor (P04629 whole entry): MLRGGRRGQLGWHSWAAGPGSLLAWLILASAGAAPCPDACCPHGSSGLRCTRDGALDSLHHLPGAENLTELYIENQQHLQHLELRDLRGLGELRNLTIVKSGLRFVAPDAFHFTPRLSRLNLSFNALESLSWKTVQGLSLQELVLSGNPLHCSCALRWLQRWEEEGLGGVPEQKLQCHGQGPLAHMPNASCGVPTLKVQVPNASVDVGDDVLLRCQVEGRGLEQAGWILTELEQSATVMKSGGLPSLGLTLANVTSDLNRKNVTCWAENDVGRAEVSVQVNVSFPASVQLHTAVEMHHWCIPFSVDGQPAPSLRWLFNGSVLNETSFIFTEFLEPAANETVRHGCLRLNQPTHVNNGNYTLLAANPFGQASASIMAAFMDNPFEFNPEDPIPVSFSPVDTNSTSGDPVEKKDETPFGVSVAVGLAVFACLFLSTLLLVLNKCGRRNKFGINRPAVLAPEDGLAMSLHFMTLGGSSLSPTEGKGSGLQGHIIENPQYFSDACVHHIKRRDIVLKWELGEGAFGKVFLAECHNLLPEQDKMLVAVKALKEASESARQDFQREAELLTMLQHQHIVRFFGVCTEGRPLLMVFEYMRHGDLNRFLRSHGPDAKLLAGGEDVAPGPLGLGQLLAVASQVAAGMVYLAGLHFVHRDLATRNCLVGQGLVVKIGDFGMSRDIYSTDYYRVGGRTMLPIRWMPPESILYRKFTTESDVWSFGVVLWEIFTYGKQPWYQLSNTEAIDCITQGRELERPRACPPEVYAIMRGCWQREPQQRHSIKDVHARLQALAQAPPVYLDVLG

IC50 [1]: 0.91 µM
SMILES: Cc1ccc(Sc2cnc(Nc3ccccn3)s2)cc1C(=O)N1CCN(S(C)(=O)=O)CC1

IC50 [1]: 0.23 µM
SMILES: CCN1CCN(C(=O)c2cc(Sc3cnc(Nc4cccc(Br)n4)s3)ccc2C)CC1

IC50 [1]: 0.05 µM
SMILES: CC(=O)N1CCN(C(=O)c2cccc(Sc3cnc(Nc4cccc(Br)n4)s3)c2)CC1

IC50 [1]: 0.08 µM
SMILES: CC(=O)N1CCN(C(=O)c2cc(Sc3cnc(Nc4ccccn4)s3)ccc2C)CC1

IC50 [1]: 1.2 µM
SMILES: C#CCNC(=O)c1cc(Sc2cnc(Nc3ccccn3)s2)ccc1C

IC50 [1]: 0.067 µM
SMILES: Cc1ccc(Sc2cnc(Nc3cccc(Br)n3)s2)cc1C(=O)NCCC#N

IC50 [1]: 0.001 µM
IC50 [4]: 4.26 µM
IC50 [5]: 0.52 µM
IC50 [6]: 0.36 µM
IC50 [7]: > 1 µM
SMILES: Cc1ccc(Sc2cnc(Nc3cccc(Br)n3)s2)cc1C(=O)N1CCN(C(=O)[C@H](C)N)CC1
IC50 [2]: 1.15 µM
IC50 [3]: 3.52 µM

IC50 [1]: 0.065 µM
SMILES: Cc1ccc(Sc2cnc(Nc3ccccn3)s2)cc1C(=O)NCCC#N

IC50 [1]: 0.24 µM
SMILES: CC(=O)N1CCN(C(=O)c2cccc(Sc3cnc(Nc4ccccn4)s3)c2)CC1

IC50 [1]: 0.01 µM
IC50 [4]: 1.17 µM
SMILES: Cc1ccc(Sc2cnc(Nc3cccc(Br)n3)s2)cc1C(=O)N(C)CCC#N
IC50 [2]: 0.37 µM
IC50 [3]: 3.32 µM

IC50 [1]: 0.21 µM
SMILES: COC(=O)N1CCN(C(=O)c2cc(Sc3cnc(Nc4ccccn4)s3)ccc2C)CC1

IC50 [1]: > 5 µM
SMILES: CC(=O)Nc1ncc(Sc2ccc(C)c(C(=O)N3CCN(C(C)=O)CC3)c2)s1

IC50 [1]: 0.0006 µM
IC50 [4]: 3.06 µM
IC50 [5]: 0.54 µM
IC50 [6]: > 1 µM
IC50 [7]: 0.43 µM
SMILES: Cc1ccc(Sc2cnc(Nc3cccc(Br)n3)s2)cc1C(=O)N1CCN(C(=O)CN)CC1
IC50 [2]: 0.55 µM
IC50 [3]: 4.08 µM

IC50 [1]: > 5 µM
SMILES: CC(=O)N1CCN(C(=O)c2cc(Sc3cnc(N)s3)ccc2C)CC1

IC50 [1]: 1.1 µM
SMILES: CC(=O)N1CCN(C(=O)c2cccc(Sc3cnc(Nc4cccc(C)n4)s3)c2)CC1

IC50 [1]: > 5 µM
SMILES: Cc1ccc(Sc2cnc(Nc3ccccn3)s2)cc1C(=O)NCc1ccccc1

IC50 [1]: 1.3 µM
SMILES: CC(=O)N1CCN(C(=O)c2ccc(Sc3cnc(Nc4cccc(Br)n4)s3)cc2)CC1

IC50 [1]: 0.15 µM
SMILES: Cc1ccc(Sc2cnc(Nc3cccc(Br)n3)s2)cc1C(=O)N1CCN(CC(N)=O)CC1

IC50 [1]: 0.06 µM
SMILES: Cc1ccc(Sc2cnc(Nc3ccccn3)s2)cc1NC(=O)CC#N

IC50 [1]: 0.32 µM
SMILES: CC(=O)NCCNC(=O)c1cc(Sc2cnc(Nc3ccccn3)s2)ccc1C

IC50 [1]: 0.79 µM
SMILES: Cc1ccc(Sc2cnc(Nc3ccccn3)s2)cc1C(N)=O

IC50 [1]: 0.16 µM
SMILES: Cc1ccc(Sc2cnc(Nc3ccccn3)s2)cc1C(=O)N1CCNCC1

IC50 [1]: 0.19 µM
SMILES: CNCCNC(=O)c1cc(Sc2cnc(Nc3ccccn3)s2)ccc1C

IC50 [1]: > 5 µM
IC50 [4]: > 10 µM
SMILES: CCNC(=O)c1cc(Sc2cnc(Nc3ccccn3)s2)ccc1C
IC50 [2]: > 10 µM
IC50 [3]: > 10 µM

IC50 [1]: 0.52 µM
SMILES: CC(=O)N1CCN(C(=O)c2cccc(Sc3cnc(Nc4ccc(Br)cn4)s3)c2)CC1

IC50 [1]: 0.001 µM
IC50 [4]: 1.78 µM
IC50 [5]: 0.23 µM
IC50 [6]: 0.7 µM
IC50 [7]: 0.17 µM
SMILES: Cc1ccc(Sc2cnc(Nc3cccc(Br)n3)s2)cc1C(=O)N1CCN(C(=O)[C@@H](C)N)CC1
IC50 [2]: 0.23 µM
IC50 [3]: 3.61 µM

IC50 [1]: 0.002 µM
IC50 [4]: 0.75 µM
SMILES: Cc1ccc(Sc2cnc(Nc3cccc(Br)n3)s2)cc1C(=O)N(C)CC#N
IC50 [2]: 0.39 µM
IC50 [3]: 3 µM

IC50 [1]: 2 µM
SMILES: Cc1ccc(Sc2cnc(Nc3ccccn3)s2)cc1C(=O)NC(C)C

IC50 [1]: 1.1 µM
SMILES: CC(=O)N1CCCN(C(=O)c2cc(Sc3cnc(Nc4ccccn4)s3)ccc2C)CC1

IC50 [1]: 0.044 µM
SMILES: Cc1ccc(Sc2cnc(Nc3ccccn3)s2)cc1C(=O)NCC#N

IC50 [1]: 0.001 µM
IC50 [4]: 1.14 µM
IC50 [5]: 0.49 µM
IC50 [6]: > 1 µM
IC50 [7]: > 1 µM
IC50 [8]: > 25 µM
SMILES: CC(=O)N1CCN(C(=O)c2cc(Sc3cnc(Nc4cccc(Br)n4)s3)ccc2C)CC1
IC50 [2]: 0.25 µM
IC50 [3]: 2.28 µM

IC50 [1]: 1.9 µM
SMILES: CC(=O)N1CCN(C(=O)c2ccccc2Sc2cnc(Nc3cccc(Br)n3)s2)CC1

IC50 [1]: 0.72 µM
SMILES: CC(=O)N1CCN(Cc2cc(Sc3cnc(Nc4ccccn4)s3)ccc2C)CC1

IC50 [1]: 0.021 µM
SMILES: CCC(=O)N1CCN(C(=O)c2cc(Sc3cnc(Nc4cccc(Br)n4)s3)ccc2C)CC1

IC50 [1]: 0.76 µM
SMILES: Cc1ccc(Sc2cnc(Nc3ccccn3)s2)cc1C(=O)NCCO

IC50 [1]: 0.031 µM
IC50 [4]: 1.66 µM
IC50 [5]: 0.18 µM
IC50 [6]: > 1 µM
IC50 [7]: > 1 µM
inhibition [9]: 8%
SMILES: CNCCN(C)C(=O)c1cc(Sc2cnc(Nc3cccc(Br)n3)s2)ccc1C
IC50 [2]: 0.46 µM
IC50 [3]: 3.06 µM
